Experimental data reported in PubChem BioAssay (NCI).
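Protocol summary: plate cells (96-well), add compound at 5 concentrations, incubate 48 h, interpolate endpoints linearly. GI50 is the concentration that inhibits growth by half. TGI denotes the concentration required for complete inhibition of growth.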

Columns and labels:
Assay in all cases: NCI anticancer screen, dose series, 48 h
SK-MEL-5 melanoma = tested on: SK-MEL-5 melanoma
MOLT-4 leukemia = tested on: MOLT-4 leukemia
SF-539 CNS = tested on: SF-539 CNS
ACHN renal = tested on: ACHN renal
NCI-H460 lung = tested on: NCI-H460 lung
KM12 colon = tested on: KM12 colon
COLO 205 colon = tested on: COLO 205 colon
OVCAR-3 ovarian = tested on: OVCAR-3 ovarian
SW-620 colon = tested on: SW-620 colon
HCT-116 colon = tested on: HCT-116 colon
T-47D breast = tested on: T-47D breast
K-562 leukemia = tested on: K-562 leukemia
HS 578T breast = tested on: HS 578T breast
NCI-H23 lung = tested on: NCI-H23 lung
SK-OV-3 ovarian = tested on: SK-OV-3 ovarian
HCT-15 colon = tested on: HCT-15 colon
OVCAR-8 ovarian = tested on: OVCAR-8 ovarian
SF-268 CNS = tested on: SF-268 CNS
OVCAR-5 ovarian = tested on: OVCAR-5 ovarian
SNB-19 CNS = tested on: SNB-19 CNS
M14 melanoma = tested on: M14 melanoma
MALME-3M melanoma = tested on: MALME-3M melanoma
DU-145 prostate = tested on: DU-145 prostate
HT29 colon = tested on: HT29 colon
EKVX NSCLC = tested on: EKVX NSCLC
SK-MEL-28 melanoma = tested on: SK-MEL-28 melanoma
MCF7 breast = tested on: MCF7 breast

Cc1ccc2c(c1)C(=O)/C(=C/c1cccc(OCC(=O)c3ccc(Cl)cc3)c1)CS2
GI50 (SK-MEL-5 melanoma): 6.95 µM | TGI (SK-MEL-5 melanoma): 19.6 µM | GI50 (MOLT-4 leukemia): 2.69 µM | TGI (MOLT-4 leukemia): 8.32 µM | GI50 (SF-539 CNS): 17.8 µM | TGI (SF-539 CNS): 36.6 µM | GI50 (ACHN renal): 8.72 µM | TGI (ACHN renal): 21.2 µM | GI50 (NCI-H460 lung): 18.8 µM | TGI (NCI-H460 lung): > 100 µM | GI50 (KM12 colon): 2.64 µM | TGI (KM12 colon): 8.02 µM | GI50 (COLO 205 colon): 9.31 µM | TGI (COLO 205 colon): 35.8 µM | GI50 (OVCAR-3 ovarian): 5.58 µM | TGI (OVCAR-3 ovarian): 18 µM | GI50 (SW-620 colon): 1.95 µM | TGI (SW-620 colon): 4.19 µM | GI50 (HCT-116 colon): 1.89 µM | TGI (HCT-116 colon): 3.85 µM | GI50 (T-47D breast): 5.67 µM | TGI (T-47D breast): 26.5 µM | GI50 (K-562 leukemia): 2.45 µM | TGI (K-562 leukemia): 8.2 µM | GI50 (HS 578T breast): 1.54 µM | TGI (HS 578T breast): 4.42 µM | GI50 (NCI-H23 lung): 3.03 µM | TGI (NCI-H23 lung): 23.4 µM | GI50 (SK-OV-3 ovarian): 25.1 µM | TGI (SK-OV-3 ovarian): 90.9 µM | GI50 (HCT-15 colon): 2.74 µM | TGI (HCT-15 colon): 15.3 µM | GI50 (OVCAR-8 ovarian): 4.53 µM | TGI (OVCAR-8 ovarian): 24.1 µM | GI50 (SF-268 CNS): 10.4 µM | TGI (SF-268 CNS): 33.3 µM | GI50 (OVCAR-5 ovarian): 15.7 µM | TGI (OVCAR-5 ovarian): 30 µM | GI50 (SNB-19 CNS): 19.5 µM | TGI (SNB-19 CNS): 77.1 µM | GI50 (M14 melanoma): 4.07 µM | TGI (M14 melanoma): 27.4 µM | GI50 (MALME-3M melanoma): 15.5 µM | TGI (MALME-3M melanoma): 46.1 µM | GI50 (DU-145 prostate): 21.9 µM | TGI (DU-145 prostate): > 100 µM | GI50 (HT29 colon): 2.81 µM | TGI (HT29 colon): 7.25 µM | GI50 (EKVX NSCLC): 8.65 µM | TGI (EKVX NSCLC): 40.8 µM | GI50 (SK-MEL-28 melanoma): 2.27 µM | TGI (SK-MEL-28 melanoma): 4.93 µM | GI50 (MCF7 breast): 3 µM | TGI (MCF7 breast): 11.3 µM
